From patent US20250129067A1 (Progentos Therapeutics, Inc., priority 2021, published 2025)

Assays:
PDGFRα = PDGFRα (Homo sapiens (Human), UniProt P16234); assay: PDGFRα kinase enzyme assay (Promega PDGFRα Kinase Enzyme System, ADP-Glo); format: biochemical; conditions: 11-point dose response, 10,000 nM to 0.169 nM; 150 uM ATP; BLQ = below limit of quantitation; read-out: IC50 Values on PDGFRα Kinase Inhibition, IC50
Outline: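 Read-out was ADP-Glo: remaining ATP depleted, ADP converted to luminescence and compared with a standard curve.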

[1] = tested on: Oligodendrocyte progenitor cells (OPCs); assay: In vitro OPC differentiation assay, GPR17 expression (immunocytochemistry); conditions: 3 μM (10× concentration, final 0.3 μM); 72 hours; fold change over vehicle
Experimental: To assess the effects of the PDGFRα inhibitors on OPC differentiation, primary OPCs were cultured and exposed to compounds. The number of newly generated oligodendrocytes was assessed by monitoring GPR17 expression. GPR17 is preferentially expressed in actively differentiating oligodendrocytes, allowing them to be distinguished from precursors and more differentiated oligodendrocytes.
Cortices from postnatal day (P) 1-3 rats were dissected and collected into ice cold Hank's Balanced Salt Solution (HBSS). […] Briefly, the cortical cell suspension was centrifuged and washed with buffer (0.5% BSA in PBS) and labeled with Anti-A2B^5 MicroBeads (10 μL beads per 1×10^7 cells) for 15 minutes at 4° C. Following the incubation, cells were washed once with BSA buffer to remove unlabeled beads. A2B^5 positive cells were eluted on the column using the AutoMACS® (Miltenyi, as per manufacturer's protocol using “Possel-s” program). Eluted cells were further washed twice with OPC growth media. Cell counts were performed using Countess III cell counter (ThermoFisher; AMQAX2000) and cells were plated.
The plates were allowed to sit at room temperature for 15 minutes to ensure proper dispersion of cells in a well. The plates were then transferred to the incubator (37° C.; 5% CO2).
Cells were then incubated for 72 hours at 37° C., 5% CO2 before immunostaining for GPR17 marker expression.
Following 72 hours in culture, cells were fixed with 4% paraformaldehyde for 15 minutes and then washed three times in Dulbecco's phosphate buffered saline (DPBS). Prior to immunostaining, cells were treated with a blocking solution (10% normal goat serum containing 1% BSA and 0.1% Triton® X-100 in DPBS) for 15 minutes at room temperature. Primary antibody (anti-GPR17 at 1:2000; Origene TA811615) was applied to cells overnight at 4° C. in incubation solution containing 1% normal goat serum, 1% BSA, and 0.1% Triton X-100 in DPBS. […] The secondary antibody was applied in incubation solution for 2 hours at room temperature, protected from light.
The number of differentiated GPR17+ cells was normalized to the total nuclei count and percent differentiated GPR17+ cells were reported. Statistical analysis was done using one-way ANOVA with multiple comparisons and post-hoc Tukey test in GraphPad Prism (GraphPad Software).

Chain of PDGFRα (P16234 24-1089): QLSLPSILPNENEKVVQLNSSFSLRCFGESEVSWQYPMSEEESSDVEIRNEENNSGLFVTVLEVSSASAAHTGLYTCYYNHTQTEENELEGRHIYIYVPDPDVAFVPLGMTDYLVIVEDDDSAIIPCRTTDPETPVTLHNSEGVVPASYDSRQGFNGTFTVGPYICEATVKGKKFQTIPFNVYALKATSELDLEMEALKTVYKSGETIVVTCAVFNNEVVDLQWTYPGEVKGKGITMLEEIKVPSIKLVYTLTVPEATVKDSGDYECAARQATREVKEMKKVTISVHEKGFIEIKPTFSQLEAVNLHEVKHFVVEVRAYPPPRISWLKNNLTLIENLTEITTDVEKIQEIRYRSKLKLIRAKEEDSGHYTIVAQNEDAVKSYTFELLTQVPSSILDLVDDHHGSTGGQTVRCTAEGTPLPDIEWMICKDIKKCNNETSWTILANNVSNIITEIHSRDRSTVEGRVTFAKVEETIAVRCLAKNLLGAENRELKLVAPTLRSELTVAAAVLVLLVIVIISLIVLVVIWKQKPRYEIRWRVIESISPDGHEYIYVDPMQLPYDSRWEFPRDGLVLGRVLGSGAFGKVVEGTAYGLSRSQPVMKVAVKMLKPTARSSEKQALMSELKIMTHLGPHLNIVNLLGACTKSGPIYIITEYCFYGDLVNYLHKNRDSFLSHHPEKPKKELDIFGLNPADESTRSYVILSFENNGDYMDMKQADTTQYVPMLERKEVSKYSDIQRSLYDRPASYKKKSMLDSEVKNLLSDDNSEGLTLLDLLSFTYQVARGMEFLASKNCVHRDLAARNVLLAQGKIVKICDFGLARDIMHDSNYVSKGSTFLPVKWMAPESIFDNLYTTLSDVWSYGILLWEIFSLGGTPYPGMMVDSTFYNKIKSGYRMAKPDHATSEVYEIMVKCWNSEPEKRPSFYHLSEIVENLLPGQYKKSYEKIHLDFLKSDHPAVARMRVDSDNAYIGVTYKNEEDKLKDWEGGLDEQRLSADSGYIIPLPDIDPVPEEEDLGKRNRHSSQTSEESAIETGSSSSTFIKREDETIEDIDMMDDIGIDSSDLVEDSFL

IC50 (PDGFRα) [µM] | GPR17 Fold Induction (Over Vehicle; 3 μM) [1] | SMILES
> 10 | 1.09 | Cn1cc(-c2ccc3c(C4CCC(CCc5ccccc5)CC4)cnn3c2)cn1 (stereo not drawn) [Compound 141, 6-(1-methyl-1H-pyrazol-4-yl)-3-(4-phenethylcyclohexyl)pyrazolo[1,5-a]pyridine]
9.54 | 5.85 | CC1CN(c2ncc(Cc3ccccc3)cn2)CCN1c1cnn2cc(-c3cnn(C)c3)ccc12 (stereo not drawn) [Compound 142, 3-(4-(5-benzylpyrimidin-2-yl)-2-methylpiperazin-1-yl)-6-(1-methyl-1H-pyrazol-4-yl)pyrazolo[1,5-a]pyridine]
0.616 | 3.89 | CC1CN(c2cnn3cc(-c4cnn(C)c4)ccc23)CCN1c1ncc(Cc2ccccc2)cn1 (stereo not drawn) [Compound 143, 3-(4-(5-benzylpyrimidin-2-yl)-3-methylpiperazin-1-yl)-6-(1-methyl-1H-pyrazol-4-yl)pyrazolo[1,5-a]pyridine]
4.53 | 2.64 | Cn1cc(-c2ccc3c(N4CCN(c5ncc(Cc6ccccc6)cn5)C(=O)C4)cnn3c2)cn1 [Compound 144, 1-(5-benzylpyrimidin-2-yl)-4-(6-(1-methyl-1H-pyrazol-4-yl)pyrazolo[1,5-a]pyridin-3-yl)piperazin-2-one]
6.97 | 1.73 | Cn1cc(-c2ccc3c(N4CCC(C(=O)OCc5ccccc5)CC4)cnn3c2)cn1 [Compound 145, benzyl 1-(6-(1-methyl-1H-pyrazol-4-yl)pyrazolo[1,5-a]pyridin-3-yl)piperidine-4-carboxylate]
5.69 | 4.45 | Cn1cc(-c2ccc3c(N4CCC(C(=O)NCc5ccccc5)CC4)cnn3c2)cn1 [Compound 146, N-benzyl-1-(6-(1-methyl-1H-pyrazol-4-yl)pyrazolo[1,5-a]pyridin-3-yl)piperidine-4-carboxamide]
6.72 | 2.23 | CN(Cc1ccccc1)C(=O)C1CCN(c2cnn3cc(-c4cnn(C)c4)ccc23)CC1 [Compound 147, N-benzyl-N-methyl-1-(6-(1-methyl-1H-pyrazol-4-yl)pyrazolo[1,5-a]pyridin-3-yl)piperidine-4-carboxamide]
> 10 | 8.88 | Cn1cc(-c2ccc3c(N4CC(Nc5ncc(Cc6ccccc6)cn5)C4)cnn3c2)cn1 [Compound 149, 5-benzyl-N-(1-(6-(1-methyl-1H-pyrazol-4-yl)pyrazolo[1,5-a]pyridin-3-yl)azetidin-3-yl)pyrimidin-2-amine]
7.19 | 4.33 | Cn1cc(-c2ccc3c(N4CCN(c5ncc(CCc6ccccc6)cn5)CC4)cnn3c2)cn1 [Compound 152, 6-(1-methyl-1H-pyrazol-4-yl)-3-(4-(5-phenethylpyrimidin-2-yl)piperazin-1-yl)pyrazolo[1,5-a]pyridine]
0.697 | 13.45 | Cn1cc(-c2ccc3c(N4CCN(c5nsc(Cc6ccccc6)n5)CC4)cnn3c2)cn1 [Compound 154, 5-benzyl-3-(4-(6-(1-methyl-1H-pyrazol-4-yl)pyrazolo[1,5-a]pyridin-3-yl)piperazin-1-yl)-1,2,4-thiadiazole]
0.0586 | 5.02 | Cn1cc(-c2ccc3c(N4CCN(c5nnc(Cc6ccccc6)o5)CC4)cnn3c2)cn1 [Compound 155, 2-benzyl-5-(4-(6-(1-methyl-1H-pyrazol-4-yl)pyrazolo[1,5-a]pyridin-3-yl)piperazin-1-yl)-1,3,4-oxadiazole]
0.45 | 3.62 | Cn1cc(-c2ccc3c(N4CCN(S(=O)(=O)NCc5ccccc5)CC4)cnn3c2)cn1 [Compound 159, N-benzyl-4-[6-(1-methyl-1H-pyrazol-4-yl)pyrazolo[1,5-a]pyridin-3-yl]piperazine-1-sulfonamide]
9.68 | 2.80 | Cn1cc(-c2ccc3c(N4CCN(S(=O)(=O)CCc5ccccc5)CC4)cnn3c2)cn1 [Compound 160, 6-(1-methyl-1H-pyrazol-4-yl)-3-(4-(phenethylsulfonyl)piperazin-1-yl)pyrazolo[1,5-a]pyridine]
1.48 | 2.90 | CN(Cc1ccccc1)C(=O)N1CCN(c2cnn3cc(-c4cnn(C)c4)ccc23)CC1 [Compound 162, N-benzyl-N-methyl-4-(6-(1-methyl-1H-pyrazol-4-yl)pyrazolo[1,5-a]pyridin-3-yl)piperazine-1-carboxamide]
0.784 | 5.94 | Cn1cc(-c2ccc3c(N4CCN(c5ncc(CC(O)c6ccccc6)cn5)CC4)cnn3c2)cn1 (stereo not drawn) [Compound 164, 2-(2-(4-(6-(1-methyl-1H-pyrazol-4-yl)pyrazolo[1,5-a]pyridin-3-yl)piperazin-1-yl)pyrimidin-5-yl)-1-phenylethan-1-ol]
0.686 | 18.42 | Cn1cc(-c2ccc3c(N4CCN(c5ncc(CCC(O)c6ccccc6)cn5)CC4)cnn3c2)cn1 (stereo not drawn) [Compound 165, 3-(2-(4-(6-(1-methyl-1H-pyrazol-4-yl)pyrazolo[1,5-a]pyridin-3-yl)piperazin-1-yl)pyrimidin-5-yl)-1-phenylpropan-1-ol]
3.57 | 6.36 | Cn1cc(-c2ccc3c(N4CCN(c5ncc(Oc6ccccc6)cn5)CC4)cnn3c2)cn1 [Compound 166, 6-(1-methyl-1H-pyrazol-4-yl)-3-(4-(5-phenoxypyrimidin-2-yl)piperazin-1-yl)pyrazolo[1,5-a]pyridine]
0.105 | 6.43 | CCCCC(O)c1cnc(N2CCN(c3cnn4cc(-c5cnn(C)c5)ccc34)CC2)nc1 (stereo not drawn) [Compound 168, 1-(2-(4-(6-(1-methyl-1H-pyrazol-4-yl)pyrazolo[1,5-a]pyridin-3-yl)piperazin-1-yl)pyrimidin-5-yl)pentan-1-ol]
0.825 | 9.79 | Cn1cc(-c2ccc3c(N4CCN(c5ncc(Cc6ccoc6)cn5)CC4)cnn3c2)cn1 [Compound 169, 3-(4-(5-(furan-3-ylmethyl)pyrimidin-2-yl)piperazin-1-yl)-6-(1-methyl-1H-pyrazol-4-yl)pyrazolo[1,5-a]pyridine]
2.38 | 3.96 | Cn1cc(-c2ccc3c(N4CCN(c5ncc(Cc6ncco6)cn5)CC4)cnn3c2)cn1 [Compound 170, 2-((2-(4-(6-(1-methyl-1H-pyrazol-4-yl)pyrazolo[1,5-a]pyridin-3-yl)piperazin-1-yl)pyrimidin-5-yl)methyl)oxazole]
> 10 | 5.33 | Cn1cc(-c2ccc3c(N4CCN(c5ncc(Cc6cocn6)cn5)CC4)cnn3c2)cn1 [Compound 171, 4-((2-(4-(6-(1-methyl-1H-pyrazol-4-yl)pyrazolo[1,5-a]pyridin-3-yl)piperazin-1-yl)pyrimidin-5-yl)methyl)oxazole]
0.71 | 4.90 | Cn1cc(-c2ccc3c(N4CCN(c5ncc(Cc6cscn6)cn5)CC4)cnn3c2)cn1 [Compound 172, 4-((2-(4-(6-(1-methyl-1H-pyrazol-4-yl)pyrazolo[1,5-a]pyridin-3-yl)piperazin-1-yl)pyrimidin-5-yl)methyl)thiazole]
0.306 | 6.67 | Cn1cc(-c2ccc3c(N4CCN(c5ncc(CN6CCc7ccccc76)cn5)CC4)cnn3c2)cn1 [Compound 174, 3-(4-(5-(indolin-1-ylmethyl)pyrimidin-2-yl)piperazin-1-yl)-6-(1-methyl-1H-pyrazol-4-yl)pyrazolo[1,5-a]pyridine]
4.33 | 4.05 | Cn1cc(-c2ccc3c(N4CCN(c5ncc(Cc6nnco6)cn5)CC4)cnn3c2)cn1 [Compound 180, 2-((2-(4-(6-(1-methyl-1H-pyrazol-4-yl)pyrazolo[1,5-a]pyridin-3-yl)piperazin-1-yl)pyrimidin-5-yl)methyl)-1,3,4-oxadiazole]
6.99 | 13.16 | Cn1cc(-c2ccc3c(N4CCN(c5ncc(Cc6nccs6)cn5)CC4)cnn3c2)cn1 [Compound 182, 2-((2-(4-(6-(1-methyl-1H-pyrazol-4-yl)pyrazolo[1,5-a]pyridin-3-yl)piperazin-1-yl)pyrimidin-5-yl)methyl) thiazole]
0.815 | 5.74 | Cn1cc(-c2ccc3c(N4CCN(c5ncc(CCCc6ccccc6)cn5)CC4)cnn3c2)cn1 [Compound 183, 6-(1-methyl-1H-pyrazol-4-yl)-3-(4-(5-(3-phenylpropyl)pyrimidin-2-yl)piperazin-1-yl)pyrazolo[1,5-a]pyridine]
0.51 | 12.67 | Cn1cc(-c2ccc3c(N4CCN(c5ncc(CC6CCCOC6)cn5)CC4)cnn3c2)cn1 (stereo not drawn) [Compound 185, 6-(1-methyl-1H-pyrazol-4-yl)-3-(4-(5-((tetrahydro-2H-pyran-3-yl)methyl)pyrimidin-2-yl)piperazin-1-yl)pyrazolo[1,5-a]pyridine]
> 10 | 1.26 | Cn1cc(-c2ccc3c(N4CCN(c5ncc(S(=O)(=O)c6ccccc6)cn5)CC4)cnn3c2)cn1 [Compound 186, 6-(1-methyl-1H-pyrazol-4-yl)-3-(4-(5-(phenylsulfonyl)pyrimidin-2-yl)piperazin-1-yl)pyrazolo[1,5-a]pyridine]
5.1 | 6.03 | Cn1cc(-c2ccc3c(N4CCN(c5ncc(Sc6ccccc6)cn5)CC4)cnn3c2)cn1 [Compound 188, 6-(1-methyl-1H-pyrazol-4-yl)-3-(4-(5-(phenylthio)pyrimidin-2-yl)piperazin-1-yl)pyrazolo[1,5-a]pyridine]
0.543 | 6.05 | CCCCCc1cnc(N2CCN(c3cnn4cc(-c5cnn(C)c5)ccc34)CC2)nc1 [Compound 190]
